Results from ChEMBL document CHEMBL1146823 (Bioorg Med Chem Lett, 2004).

Assays:
Carbonic anhydrase 4 = biological target: T1, Carbonic anhydrase 4 (Bos taurus, UniProt Q95323)
T1 sequence (Q95323 whole entry): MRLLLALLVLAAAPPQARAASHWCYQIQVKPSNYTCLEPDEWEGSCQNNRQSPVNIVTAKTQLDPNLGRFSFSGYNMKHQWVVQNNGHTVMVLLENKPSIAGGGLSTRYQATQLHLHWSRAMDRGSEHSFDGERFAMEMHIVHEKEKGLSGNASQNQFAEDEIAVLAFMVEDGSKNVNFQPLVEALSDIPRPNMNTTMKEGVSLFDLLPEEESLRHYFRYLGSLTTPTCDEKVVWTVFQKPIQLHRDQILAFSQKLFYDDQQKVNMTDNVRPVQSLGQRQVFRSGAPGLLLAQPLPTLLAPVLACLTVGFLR
Description: Inhibitory activity of compound against bovine carbonic anhydrase IV

Carbonic anhydrase 1 = Carbonic anhydrase 1 (Homo sapiens, UniProt P00915)
Sequence of Carbonic anhydrase 1 (P00915 whole entry): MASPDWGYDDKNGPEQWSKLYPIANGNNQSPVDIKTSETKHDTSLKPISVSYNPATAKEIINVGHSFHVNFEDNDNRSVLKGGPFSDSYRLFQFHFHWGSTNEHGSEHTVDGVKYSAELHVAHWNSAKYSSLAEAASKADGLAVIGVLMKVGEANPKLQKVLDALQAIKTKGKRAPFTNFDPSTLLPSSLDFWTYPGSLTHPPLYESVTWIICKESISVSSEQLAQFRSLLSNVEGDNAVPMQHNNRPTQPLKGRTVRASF
Description: Inhibitory activity of compound against human carbonic anhydrase I

Row | Structure (SMILES) | IC50 (Carbonic anhydrase 4) [µM] | IC50 (Carbonic anhydrase 1) [µM]
1 | CC1(C)O[C@@H]2[C@@H](CO[C@@]3(COS(N)(=O)=O)OC(C)(C)O[C@@H]23)O1 [TOPIRAMATE] | 0.054 | 
2 | CCN1CCCC1CNC(=O)c1cc(S(N)(=O)=O)ccc1OC (configuration not stated) [SULPIRIDE] | 0.62 | 
3 | C[C@]12CC[C@@H]3c4ccc(OS(N)(=O)=O)cc4CCC3[C@@H]1CCC2=O (single isomer, unassigned) [EMATE] |  | 0.037

More lines, in order of falling IC50 (Carbonic anhydrase 4), values ahead:

Row | IC50 (Carbonic anhydrase 4) [µM] | Structure (SMILES) | IC50 (Carbonic anhydrase 1) [µM]
4 | 0.38 | NS(=O)(=O)c1cc(Cl)c(Cl)c(S(N)(=O)=O)c1 [DICHLORPHENAMIDE] | 
5 | 0.29 | Cc1ccc(-c2cc(C(F)(F)F)nn2-c2ccc(S(N)(=O)=O)cc2)cc1 [CELECOXIB] | 
6 | 0.065 | NS(=O)(=O)c1ccc(S(=O)(=O)Nc2cccc3c(Cl)c[nH]c23)cc1 | 
